Source: ChEMBL document CHEMBL1201862, “PubChem BioAssay data set” (2004)
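Grown in 96-well plates, cells were treated for 48 hours with each compound at five concentrations. Insufficient inhibition: endpoint recorded as highest concentration tested. GI50: concentration for 50% inhibition of growth.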 The source made the active and inactive calls. No stated cut-off is given here; in the data, active = GI50 up to about 1.1 µM and inactive = higher.

Legend:
Assay in all cases: NCI anticancer screen, dose series, 48 h
[1] = tested on: COLO 205
[2] = tested on: HL-60
[3] = tested on: HOP-62
[4] = tested on: HOP-92
[5] = tested on: K562
[6] = tested on: KM12
[7] = tested on: LOX IMVI
[8] = tested on: M14
[9] = tested on: MDA-MB-231
[10] = tested on: MDA-N
[11] = tested on: MOLT-4
[12] = tested on: NCI-H226
[13] = tested on: NCI-H460
[14] = tested on: SK-MEL-5
[15] = tested on: SK-OV-3
[16] = tested on: SNB-75
[17] = tested on: UACC-257
[18] = tested on: UACC-62
[19] = tested on: RPMI-8226
[20] = tested on: SF-268

Measured: GI50

O=c1n(-c2ccccc2)c(=O)n2c(-c3ccccc3)c(-c3ccccc3)n12
inactive: [1] 91.6 µM | [2] 33.4 µM | [3] > 100 µM | [4] > 100 µM | [5] 80.9 µM | [6] > 100 µM | [7] 72.1 µM | [8] 52.1 µM | [9] > 100 µM | [10] > 100 µM | [11] 37.4 µM | [12] > 100 µM | [13] 91 µM | [14] > 100 µM | [15] > 100 µM | [16] 76.9 µM | [17] > 100 µM | [18] > 100 µM

NS(=O)(=O)c1nnc(NC(=O)N(c2ccccc2)c2ccccc2)s1
inactive: [1] 37.9 µM | [2] 16.3 µM | [3] 27.2 µM | [4] 19.1 µM | [5] 33.5 µM | [6] 21.6 µM | [7] 15.9 µM | [8] 15.2 µM | [9] 70.1 µM | [10] 25.4 µM | [11] 21.1 µM | [12] 41.5 µM | [19] 17 µM | [20] 30.3 µM | [14] 22.7 µM | [15] 59.6 µM | [16] 18.5 µM | [17] 36.1 µM | [18] 21.9 µM

O=c1[nH]nc(Nc2ccccc2)c2nnn(C3CCCCC3)c12
inactive: [1] > 100 µM | [2] > 100 µM | [3] > 100 µM | [4] > 100 µM | [5] > 100 µM | [6] > 100 µM | [7] > 100 µM | [8] > 100 µM | [9] > 100 µM | [10] > 100 µM | [11] > 100 µM | [13] > 100 µM | [19] > 100 µM | [14] > 100 µM | [17] > 100 µM

CC1(C)CN=C(Nc2cccc(C(F)(F)F)c2)S1
inactive: [1] > 100 µM | [2] 59.3 µM | [3] > 100 µM | [4] > 100 µM | [5] > 100 µM | [6] > 100 µM | [7] > 100 µM | [8] > 100 µM | [10] > 100 µM | [11] > 100 µM | [12] > 100 µM | [19] > 100 µM | [20] > 100 µM | [14] > 100 µM | [15] > 100 µM | [16] > 100 µM | [17] > 100 µM | [18] > 100 µM
active: [9] 0.684 µM

COc1ccc(S(=O)(=O)NC(CCC(=O)NN)C(=O)NN)cc1 (stereo not given)
inactive: [1] > 100 µM | [2] > 100 µM | [3] > 100 µM | [4] > 100 µM | [5] > 100 µM | [6] > 100 µM | [7] > 100 µM | [8] > 100 µM | [9] > 100 µM | [10] > 100 µM | [11] > 100 µM | [13] > 100 µM | [19] > 100 µM | [14] > 100 µM | [15] > 100 µM | [16] > 100 µM | [17] > 100 µM | [18] > 100 µM

Cc1nc2c(O)cc3c4c(=O)n(C)c(=O)n(C)c4n(Cc4ccccc4)c3c2nc1C
inactive: [1] 13.3 µM | [2] 24.2 µM | [3] 17.6 µM | [4] 13.8 µM | [5] 34.1 µM | [6] 21.2 µM | [7] 18.9 µM | [8] 17.6 µM | [9] 20.4 µM | [10] 18.4 µM | [11] 24.5 µM | [12] 21.6 µM | [13] 45.8 µM | [19] 19.1 µM | [20] 17.6 µM | [14] 18.1 µM | [15] 17.1 µM | [17] 18.4 µM | [18] 18.2 µM

CC(=O)NC1C(OCc2ccccc2)OC(CO)C(O)C1OC(C)C(=O)NC(C(=O)NC(CCC(=O)Nc1ccc2c(c1)CN1C(=O)c3ccccc3C1=N2)C(N)=O)C(C)C (stereo not given)
inactive: [1] > 100 µM | [2] > 100 µM | [3] > 100 µM | [4] > 100 µM | [5] > 100 µM | [6] > 100 µM | [7] > 100 µM | [8] > 100 µM | [9] > 100 µM | [10] > 100 µM | [11] > 100 µM | [13] > 100 µM | [19] > 100 µM | [20] > 100 µM | [14] > 100 µM | [15] > 100 µM | [16] > 100 µM | [17] > 100 µM | [18] > 100 µM

C[Si](C)(OCCS(=O)(=O)O)OC(=C1S(=O)(=O)OCCOS1(=O)=O)c1cccc2ccccc12
inactive: [1] > 100 µM | [2] 11.6 µM | [3] > 100 µM | [4] > 100 µM | [5] 84.5 µM | [6] > 100 µM | [7] > 100 µM | [8] > 100 µM | [9] > 100 µM | [10] > 100 µM | [11] > 100 µM | [12] > 100 µM | [13] > 100 µM | [19] > 100 µM | [20] 64 µM | [14] > 100 µM | [16] > 100 µM | [17] > 100 µM
